# Measurements taken from ChEMBL document CHEMBL4831492, “Design and synthesis of 2-(2-isonicotinoylhydrazineylidene)propanamides as InhA inhibitors with high antitubercular activity” (Eur J Med Chem, 2021).
# Activity calls are given as the source filed them. The rule behind the calls is not given here.
# How the values were obtained:
# Mycobacterium kansasii [1] = test: Antimycobacterial activity against drug resistant Mycobacterium kansasii 235/80 assessed as inhibition of mycobacterial growth at 62.5 uM incubated for 14 days; type: functional, organism-based; details: time 14.0 day
# Mycobacterium avium [2] = test: Antimycobacterial activity against drug resistant Mycobacterium avium 330/88 assessed as inhibition of mycobacterial growth at 125 uM incubated for 14 days; type: functional, organism-based; details: time 14.0 day
# HepG2 [3] = test: Cytotoxicity against human HepG2 cells assessed as reduction in cell viability incubated overnight followed by compound washout by MTT assay; type: cell-based
# [4] = system: Mycobacterium tuberculosis; test: Antimycobacterial activity against drug susceptible Mycobacterium tuberculosis H37Rv assessed as minimal inhibitory concentration required for complete inhibition of mycobacterial growth incubated for 21 days; type: functional; details: 504 h, time 21 day
# Mycobacterium kansasii [5] = test: Antimycobacterial activity against drug resistant Mycobacterium kansasii 235/80 assessed as minimal inhibitory concentration required for complete inhibition of mycobacterial growth incubated for 7 days; type: functional; details: 235/80, 168 h, time 7 day
# HepG2 [6] = test: Cytostatic activity in human HepG2 cells assessed as reduction in cell viability incubated overnight followed by compound washout and further incubated for 72 hrs in medium containing serum by MTT assay; type: functional, cell-based; details: HepG2, 72 h
# [7] = system: Mycobacterium tuberculosis; test: Antimycobacterial activity against drug susceptible Mycobacterium tuberculosis H37Rv assessed as minimal inhibitory concentration required for complete inhibition of mycobacterial growth incubated for 14 days; type: functional; details: 336 h, time 14 day
# Mycobacterium avium [8] = test: Antimycobacterial activity against drug resistant Mycobacterium avium 330/88 assessed as inhibition of mycobacterial growth at 125 uM incubated for 21 days; type: functional, organism-based; details: time 21.0 day
# Mycobacterium kansasii [9] = test: Antimycobacterial activity against drug resistant Mycobacterium kansasii 6509/96 assessed as minimal inhibitory concentration required for complete inhibition of mycobacterial growth incubated for 7 days; type: functional; details: 6509/96, 168 h, time 7 day
# Mycobacterium kansasii [10] = test: Antimycobacterial activity against drug resistant Mycobacterium kansasii 6509/96 assessed as minimal inhibitory concentration required for complete inhibition of mycobacterial growth incubated for 14 days; type: functional; details: 6509/96, 336 h, time 14 day
# [11] = Selectivity index, ratio of CC50 for cytotoxicity against human HepG2 cells to MIC for antimycobacterial activity against drug susceptible Mycobacterium tuberculosis H37Rv; type: toxicity, cell-based; details: read-out: Selectivity Index
# Mycobacterium kansasii [12] = test: Antimycobacterial activity against drug resistant Mycobacterium kansasii 235/80 assessed as inhibition of mycobacterial growth at 62.5 uM incubated for 21 days; type: functional, organism-based; details: time 21.0 day
# Mycobacterium kansasii [13] = test: Antimycobacterial activity against drug resistant Mycobacterium kansasii 6509/96 assessed as minimal inhibitory concentration required for complete inhibition of mycobacterial growth incubated for 21 days; type: functional; details: 6509/96, 504 h, time 21 day
# [14] = Selectivity index, ratio of CC50 for cytotoxicity against human HepG2 cells to MIC for antimycobacterial activity against drug susceptible Mycobacterium […]; type: toxicity, cell-based; details: read-out: Selectivity Index
structure (smiles),measurement,setting,value
C/C(=N\NC(=O)c1ccncc1)C(=O)Nc1cccc(Cl)c1,Activity,Mycobacterium kansasii [1],inactive
same,Activity,Mycobacterium avium [2],inactive
same,IC50,HepG2 [3],> 50 µM
same,MIC,[4],0.125 µM
same,MIC,Mycobacterium kansasii [5],32 µM
same,IC50,HepG2 [6],> 50 µM
same,MIC,[7],0.125 µM
same,Activity,Mycobacterium avium [8],inactive
same,MIC,Mycobacterium kansasii [9],2 µM
same,MIC,Mycobacterium kansasii [10],2 µM
same,selectivity ratio,[11],> 400
same,Activity,Mycobacterium kansasii [12],inactive
same,MIC,Mycobacterium kansasii [13],4 µM
same,selectivity ratio,[14],> 12.5
